Test results taken from patent publication US20260207718A1, “METHODS FOR TREATING LATE ONSET POMPE DISEASE IN PEDIATRIC PATIENTS” (Amicus Therapeutics, Inc., priority 2022, published 2026).

Key:
Gaa KO mice [1] = assay: Single fiber analysis (LAMP1/LC3) of muscle fibers from Gaa KO mice; format: in vivo
Source text: FIG. 17 depicts co-immunofluorescent staining of LAMP1 (green) (see for example, “B”) and LC3 (red) (see, for example, “A”) in single fibers isolated from the white gastrocnemius of Gaa KO mice treated with a vehicle, alglucosidase alfa, or ATB200. “C” depicts clearance of autophagic debris and absence of enlarged lysosome. A minimum of 30 fibers were examined from each animal.
As a result, a significant portion of muscle fibers analyzed (36-60%) from ATB200-treated mice appeared normal or near-normal.

pediatric LOPD patient = details: (failed); 20 mg/kg Q2W (M)
CIMPR = CIMPR (Homo sapiens, UniProt P11717); assay: CIMPR affinity chromatography (bound vs unbound rhGAA by GAA activity); format: binding
CIMPR, sequence (P11717 41-2491, species assumed): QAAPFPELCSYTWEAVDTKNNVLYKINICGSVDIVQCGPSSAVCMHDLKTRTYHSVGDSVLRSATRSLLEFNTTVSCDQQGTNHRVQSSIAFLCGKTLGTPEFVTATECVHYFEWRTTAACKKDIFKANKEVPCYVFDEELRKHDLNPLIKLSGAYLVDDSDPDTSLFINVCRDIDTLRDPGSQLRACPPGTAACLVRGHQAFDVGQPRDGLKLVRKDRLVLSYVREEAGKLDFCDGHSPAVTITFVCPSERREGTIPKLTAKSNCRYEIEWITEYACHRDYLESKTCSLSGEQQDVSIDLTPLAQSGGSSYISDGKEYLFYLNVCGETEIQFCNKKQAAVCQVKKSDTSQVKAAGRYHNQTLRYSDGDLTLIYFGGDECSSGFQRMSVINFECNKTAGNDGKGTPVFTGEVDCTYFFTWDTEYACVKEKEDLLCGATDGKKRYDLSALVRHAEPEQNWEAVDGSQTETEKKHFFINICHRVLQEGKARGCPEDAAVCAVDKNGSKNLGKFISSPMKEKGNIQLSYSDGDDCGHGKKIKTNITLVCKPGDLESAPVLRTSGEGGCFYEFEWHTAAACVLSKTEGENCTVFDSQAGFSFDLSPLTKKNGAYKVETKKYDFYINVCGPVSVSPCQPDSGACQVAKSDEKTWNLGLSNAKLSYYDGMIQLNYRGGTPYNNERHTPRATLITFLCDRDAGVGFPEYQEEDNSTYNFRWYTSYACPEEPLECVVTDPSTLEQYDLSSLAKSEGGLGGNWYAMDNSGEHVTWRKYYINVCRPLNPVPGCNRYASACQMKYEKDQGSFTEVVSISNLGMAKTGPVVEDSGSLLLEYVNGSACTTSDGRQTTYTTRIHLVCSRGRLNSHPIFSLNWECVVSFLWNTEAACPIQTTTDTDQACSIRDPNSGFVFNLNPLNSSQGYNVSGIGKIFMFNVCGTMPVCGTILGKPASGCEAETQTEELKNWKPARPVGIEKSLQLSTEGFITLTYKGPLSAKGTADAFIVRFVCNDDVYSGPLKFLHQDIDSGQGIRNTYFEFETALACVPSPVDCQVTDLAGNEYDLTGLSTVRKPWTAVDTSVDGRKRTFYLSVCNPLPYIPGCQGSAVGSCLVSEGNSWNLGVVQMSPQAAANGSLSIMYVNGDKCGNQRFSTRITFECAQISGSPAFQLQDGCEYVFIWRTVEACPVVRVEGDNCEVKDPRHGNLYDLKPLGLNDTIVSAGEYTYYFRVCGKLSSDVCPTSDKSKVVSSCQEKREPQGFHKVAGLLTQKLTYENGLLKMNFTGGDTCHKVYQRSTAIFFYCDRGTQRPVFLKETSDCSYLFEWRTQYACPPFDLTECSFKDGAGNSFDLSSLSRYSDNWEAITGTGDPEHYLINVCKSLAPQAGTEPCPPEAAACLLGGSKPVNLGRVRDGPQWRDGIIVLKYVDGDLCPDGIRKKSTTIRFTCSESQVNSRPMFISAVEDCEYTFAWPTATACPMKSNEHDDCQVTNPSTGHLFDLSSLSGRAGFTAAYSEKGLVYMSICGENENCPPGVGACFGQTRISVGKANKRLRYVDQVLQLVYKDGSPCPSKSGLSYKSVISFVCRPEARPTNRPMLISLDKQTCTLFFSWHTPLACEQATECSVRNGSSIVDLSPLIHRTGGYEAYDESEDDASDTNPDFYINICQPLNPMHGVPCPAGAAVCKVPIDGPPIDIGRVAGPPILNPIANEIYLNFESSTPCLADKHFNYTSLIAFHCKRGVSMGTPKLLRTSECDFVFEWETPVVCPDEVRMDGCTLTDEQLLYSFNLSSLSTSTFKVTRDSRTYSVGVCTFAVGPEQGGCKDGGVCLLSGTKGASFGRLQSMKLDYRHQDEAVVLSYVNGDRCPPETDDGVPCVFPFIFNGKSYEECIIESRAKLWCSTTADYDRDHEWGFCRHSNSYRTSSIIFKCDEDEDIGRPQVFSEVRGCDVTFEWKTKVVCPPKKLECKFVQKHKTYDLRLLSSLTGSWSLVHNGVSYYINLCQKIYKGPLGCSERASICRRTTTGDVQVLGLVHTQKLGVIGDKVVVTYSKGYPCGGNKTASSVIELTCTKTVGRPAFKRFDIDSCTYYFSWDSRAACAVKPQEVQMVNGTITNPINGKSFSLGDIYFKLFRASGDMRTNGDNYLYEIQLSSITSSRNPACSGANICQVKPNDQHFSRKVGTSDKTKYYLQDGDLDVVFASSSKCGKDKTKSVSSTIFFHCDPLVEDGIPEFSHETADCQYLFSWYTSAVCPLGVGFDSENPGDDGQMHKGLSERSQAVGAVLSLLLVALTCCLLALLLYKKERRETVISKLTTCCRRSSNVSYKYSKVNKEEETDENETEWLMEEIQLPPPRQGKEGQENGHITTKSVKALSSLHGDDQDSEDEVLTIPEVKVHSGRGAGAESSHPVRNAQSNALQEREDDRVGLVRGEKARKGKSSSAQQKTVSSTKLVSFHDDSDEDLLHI
Source text: Multiple batches of the rhGAA according to the disclosure were produced in shake flasks and in perfusion bioreactors using CHO cell line GA-ATB200, the product of which is referred to as “ATB200.” Weak anion exchange (“WAX”) liquid chromatography was used to fractionate ATB200 rhGAA according to terminal phosphate and sialic acid. Elution profiles were generated by eluting the ERT with increasing amount of salt. The profiles were monitored by UV (A280 nm).
To evaluate the ability of the conventional rhGAAs in MYOZYME® and LUMIZYME® to interact with the CIMPR, the two conventional rhGAA preparations were injected onto a CIMPR affinity column (which binds rhGAA having M6P groups) and the flow through collected. The bound material was eluted with a free M6 gradient. Fractions were collected in 96-well plate and GAA activity assayed by 4MU-α-glucosidase substrate. The relative amounts of unbound (flow through) and bound (M6P eluted) rhGAA were determined based on GAA activity and reported as the fraction of total enzyme. […] Indeed, only 27% of the rhGAA in MYOZYME® and 22% of the rhGAA in LUMIZYME® contained M6P that can be productive to target it to the CIMPR on muscle cells.

[2] = test system: subjects with late-onset Pompe disease (LOPD); details: cited from earlier work
Gaa KO mice [3] = assay: Co-administration of ATB200 and miglustat in Gaa KO mice (tissue glycogen, LAMP1, LC3, dysferlin); format: in vivo; details: FIG. 15B
Method: The therapeutic effects of ATB200 and miglustat were evaluated and compared against those of Alglucosidase alfa in Gaa KO mice. For the study, male Gaa KO (3- to 4-month old) and age-matched wild-type (WT) mice were used. Alglucosidase alfa was administered via bolus tail vein intravenous (IV) injection. In the co-administration regimen, miglustat was administered via oral gavage (PO) 30 minutes prior to the IV injection of ATB200. Treatment was given biweekly. Treated mice were sacrificed after 14 days from the last administration and various tissues were collected for further analysis. Table 11 summarizes the study design:
Tissue glycogen content in tissues samples was determined using amyloglucosidase digestion, as discussed above.
Tissue samples were also analyzed for biomarker changes following the methods discussed in: Khanna R, et al. (2012), “The pharmacological chaperone AT2220 increases recombinant human acid α-glucosidase uptake and glycogen reduction in a mouse model of Pompe disease,” Plos One 7(7): e40776; and Khanna, R et al. (2014), “The Pharmacological Chaperone AT2220 Increases the Specific Activity and Lysosomal Delivery of Mutant Acid α-Glucosidase, and Promotes Glycogen Reduction in a Transgenic Mouse Model of Pompe Disease,” PLOS ONE 9(7): e102092.

[4] = test system: adult subjects with late-onset Pompe disease (LOPD); details: in vivo
Source text: (§1) Efficacy assessments (i.e., functional assessments) included evaluation of ambulatory function (6 MWT), motor function tests (Gait, Stair, Gower, and Chair maneuver (GSGC) test and Timed Up and Go (TUG) test), muscle strength (manual muscle testing and quantitative muscle testing), and pulmonary function tests (FVC, SVC, MIP, MEP, and SNIP).
(§2) The primary efficacy endpoint was the change from baseline to Week 52 in 6 MWD.
(§3) Key secondary efficacy endpoints in a pre-specified hierarchical order of importance were as follows. These secondary endpoints were analyzed using analysis of covariance (ANCOVA) model with last observation carried forward (ITT LOCF). • change from baseline to Week 52 in sitting FVC (% predicted) • change from baseline to Week 52 in the manual muscle test score for the lower extremities • change from baseline to Week 52 in the total score for the PROMIS—physical function • change from baseline to Week 52 in the total score for the PROMIS—fatigue • change from baseline to Week 52 in GSGC total score
(§4) PROPEL was a 52-week, double-blind randomized global study designed to assess the efficacy, safety and tolerability of AT-GAA compared to the current standard of care, alglucosidase alfa, an enzyme replacement therapy (ERT).
(§5) Patients enrolled in PROPEL were randomized 2:1 so that for every two patients randomized to be treated with AT-GAA, one was randomized to be treated with alglucosidase alfa.

[5] = test system: adult subjects with late-onset Pompe disease (LOPD); assay: ATB200-03 (PROPEL) phase 3 trial; details: for absolute decline in percent-predicted FVC: 52 weeks; for mean change in total GSGC score: baseline to week 52, overall population
Source text: as §1, §2, §3, §4, §5

[6] = test system: LOPD population (ERT-naïve and ERT-experienced); assay: Indirect treatment comparison, multi-level network meta regression (ML-NMR); design: species or system human; details: base-case scenario, sensitivity analysis (RCT data only)
Method: Moreover, a comparison of three randomized clinical trials (LOTS: alglucosidase alfa vs placebo; COMET: avalglucosidase alfa vs alglucosidase alfa; and PROPEL: cipaglucosidase alfa/miglustat vs alglucosidase alfa) share 6 MWD and % predicted FVC as key primary or secondary endpoints. Using patient-level data from the PROPEL randomized clinical trial (RCT) plus aggregate published data from other RCTs, Phase I/II and open label extension trials, a multi-level network meta-regression was conducted, adjusting for various baseline covariates including previous ERT duration. The base case scenario had covariates resembling the PROPEL population (naïve and ERT-experienced) and analyzed 6 MWD and FVC change from baseline at 52 weeks. […]
A systematic literature review (SLR) was conducted to identify relevant published clinical studies of ERTs in LOPD. Outcomes assessed were change from baseline in 6-minute walking distance (6 MWD) (m) and in forced vital capacity (FVC; % predicted) at week 52, acknowledged by clinicians, HTA agencies and payers as key LOPD trial endpoints. […]
A base-case scenario was evaluated in which all covariates were set to the target population of the PROPEL trial. […]

MYOZYME®: conventional rhGAA product containing alglucosidase alfa (Sanofi Genzyme)
lysosome size and autophagic buildup compared to vehicle-treated mice (Gaa KO mice [1]; FIG. 17): did not show any significant difference | 6MWT (pediatric LOPD patient): 44.2 m | rhGAA that bound to the CIMPR (CIMPR): 27% | rhGAA that did not bind to the CIMPR (fraction of total enzyme) (CIMPR): 73%

alglucosidase alfa
subjects who did not show an initial improvement during treatment ([2]; 368 subjects with LOPD from published studies): > 30% | duration of improvements in initial responders ([2]; longer-term studies): approximately 2 years | Fibers with Autophagy Buildup (Gaa KO mice [1]): >90% | Fibers with Normal or Near-normal Appearance (Gaa KO mice [1]): <10% | LC3 II level (western blot) / effect on autophagy (Gaa KO mice [3]): modest | participants with infusion/injection associated reactions (IARs) [4]: 26% | patients who discontinued treatment due to an adverse event [4]: 2.6% | absolute decline in percent-predicted FVC ([5]; ERT switch patients): 4.0% | FVC, CFBL at Week 52 ([5]; ERT switch population): −4.0 % predicted | 6MWD, CFBL at Week 52 ([5]; ERT switch population (n=95)): 0.0 m | 6MWD, CFBL at Week 52 ([5]; ERT treatment naive population): 38 m | FVC, CFBL at Week 52 ([5]; ERT treatment naive population): −3.6 % predicted | 6MWD, CFBL at Week 52 ([5]; ERT treatment naive population, listed as Alglucosidase alfa): +38.3 m | mean urinary Glc4 concentration ([5]; ERT-experienced patients, Week 52 (baseline 4.6 ATB200/miglustat, 7.2 alglucosidase alfa with placebo)): 9.1 mmol/mol | mean change in CK (creatine kinase) ([5]; after 52 weeks): +15.6% | mean change (SD) in MMT score for lower extremities ([5]; baseline to week 52): 0.9 (2.58) | mean change in total GSGC score [5]: worsening | mean change in total GSGC score ([5]; listed as alglucosidase alfa and placebo): 0.77 (1.8) | absolute decline in percent-predicted FVC ([5]; combined population): 4.0% | mean change of urine Hex-4 ([5]; combined population, after 52 weeks): +11.0% | 6MWD, CFBL at Week 52 ([5]; overall ERT switch and ERT naïve population): 7 m | 6MWD, CFBL at Week 52 ([5]; overall ERT switch and ERT naïve population, listed as Alglucosidase alfa): +7.2 m | FVC, CFBL at Week 52 ([5]; overall population): −4.0 % predicted | relative effect for 6MWT and FVC [6]: numerically favourable versus placebo
